# According to US20250387403A1, “SELECTIVE SIGMA-2 RECEPTOR LIGANDS AS MODULATORS OF TMEM97” (BOARD OF REGENTS, THE UNIVERSITY OF TEXAS SYSTEM, priority 2022, published 2025):
# Experiments:
# [1] = target: T1, σ2R/TMEM97 (Homo sapiens, UniProt Q5BJF2)
# Protocol: (§1) Ki values are calculated from best-fit IC50 determinations performed in triplicate.
# (§2) The binding affinities (Ki) of all synthetic compounds for σ2R/TMEM97 and σ1R were determined at the Psychoactive Drug Screening Program. Prior to the identification of σ2R as TMEM97, Ki values were measured using σ2R sourced from rat PC12 cells and σ1R sourced from guinea pig brain, but subsequently σ2R/TMEM97 and σ1R binding isotherms were determined using human protein obtained by transfection in HEK293T cells.
# [2] = target: σ2R/TMEM97 (Rattus norvegicus (Rat), UniProt Q5U3Y7); assay: Receptor binding assay (PDSP), rat σ2R/TMEM97 (PC12 cells), [3H]-ditolylguanidine competition
# Protocol: as §1, §2
# [3] = tested on: primary cortical neurons transfected with plasmids expressing mHTT (Htt-N586-82Q); assay: mHTT-induced toxicity in transfected primary cortical neurons (HD cell model); type: cell-based; settings: for neuroprotection against mHTT-induced neuronal toxicity: concentrations 0.01-10 μM; for intrinsic toxicity: primary cortical neurons
# Protocol: Toward testing the hypothesis that selective modulators of σ2R/TMEM97 have neuroprotective attributes in Huntington's disease, a small panel of compounds were evaluated with differing affinities and selectivities for σ2R/TMEM97 in a primary neuron model of HD. […] In the present disclosure, these compounds are tested in an HD cell model to assess the effects of these compounds upon mHTT-induced neuronal toxicity. Briefly, primary neurons were co-transfected with plasmid expression of a 586 N-terminal Htt polypeptide with either normal Q (Htt-N586-22Q) or expanded Q (Htt-N586-82Q) repeats and green fluorescent protein (GFP).
# Stock solutions of σ2R/TMEM97 modulators were prepared by dissolving the compound in DMSO to a concentration of 10 mM. For the in vitro assays, the stock solution was diluted with culture medium (1:1000) to a working concentration of 10 μM of σ2R/TMEM97 modulator. Serial dilutions were then performed using culture medium to prepare other concentrations of the modulator. The final DMSO concentration is less than 0.1%. The vehicle group was performed using 0.1% DMSO in culture medium.
# To assess the possible neuroprotective effects of selective σ2R/TMEM97 modulators in neurodegenerative processes associated with HD, a cell model was used that has been previously described (Arbez et al, 2017).
# [4] = tested on: spared nerve injury (SNI) model; settings: earlier studies (Sahn et al, 2017); cited from earlier work
# [5] = target: T1, σ2R/TMEM97; assay: Receptor binding assay (PDSP), human σ2R/TMEM97, [3H]-ditolylguanidine competition; settings: for affinity (Ki) for σ2R/TMEM97, in words: human σ2R/TMEM97; for selectivity for σ2R/TMEM97 vs σ1R, in words: human σ2R/TMEM97 vs human σ1R
# Protocol: as §1, §2
# T1 sequence (Q5BJF2 whole entry, looked up): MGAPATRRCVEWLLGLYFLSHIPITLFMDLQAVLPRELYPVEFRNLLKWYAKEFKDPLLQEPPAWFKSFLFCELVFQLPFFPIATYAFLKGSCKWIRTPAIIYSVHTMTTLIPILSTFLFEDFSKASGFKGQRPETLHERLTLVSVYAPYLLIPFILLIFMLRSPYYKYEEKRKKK
# Chain of σ2R/TMEM97 (Rattus norvegicus (Rat), UniProt Q5U3Y7) (Q5U3Y7 whole entry): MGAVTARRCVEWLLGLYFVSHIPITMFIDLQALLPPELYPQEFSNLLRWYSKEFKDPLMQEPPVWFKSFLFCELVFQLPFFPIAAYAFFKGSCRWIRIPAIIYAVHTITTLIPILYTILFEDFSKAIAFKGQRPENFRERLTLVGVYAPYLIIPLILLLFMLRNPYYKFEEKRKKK
Ki [1] [nM],SMILES,other results
1.3,CCCN1CCC(C(=O)N2CCC3CC2c2cc(-c4ccc(C(F)(F)F)cc4)ccc23)CC1 (stereo not shown),–
2.3,CN1CCC(C(=O)N2CCC3CC2c2cc(-c4cccc(C(F)(F)F)c4)ccc23)CC1 (stereo not shown),–
7.9,N[C@H]1CC[C@@H](N2CCC3CC2c2cc(-c4cccc(C(F)(F)F)c4)ccc23)CC1 (stereo partly shown),–
30.8,N[C@H]1CC[C@@H](N2CCC3C[C@H]2c2cc(-c4cccc(C(F)(F)F)c4)ccc23)CC1,–
955,O=C(N1CCN(CCO)CC1)N1CCC2C[C@H]1c1cc(-c3ccc(C(F)(F)F)cc3)ccc12,–
32.3,O=C(C1CCN(CCO)CC1)N1CCC2CC1c1cc(-c3cccc(C(F)(F)F)c3)ccc12 (stereo not shown),–
32,OCCN1CCC2CC1c1cc(-c3ccc(C(F)(F)F)cc3)ccc12 (stereo not shown),–
35.4,O=C(C1CCNCC1)N1CC[C@@H]2CC1c1cc(-c3cccc(OC(F)(F)F)c3)ccc12,–
–,"CN1CCN(c2ccc3c(c2)C2CC3CCN2C(=O)OCc2ccc(F)cc2)CC1 (racemic) [AMA-1127, (±)-4-Fluorobenzyl-8-(4-methylpiperazin-1-yl)-1,3,4,5-tetrahydro-2H-1,5-methanobenzo[c]azepine-2-carboxylate]","affinity (Ki) for σ2R/TMEM97, in words ([2]; rat σ2R/TMEM97): high affinity; selectivity for σ2R/TMEM97 vs σ1R, in words ([2]; rat σ2R/TMEM97 vs guinea pig σ1R): good selectivity; neuroprotection against mHTT-induced neuronal toxicity [3]: significant neuroprotection in a dose dependent fashion; intrinsic toxicity [3]: None of these compounds appear to exhibit any intrinsic toxicity"
9.5,CN(C)[C@H]1CC[C@@H](N2CCC3C[C@H]2c2cc(-c4cccc(C(F)(F)F)c4)ccc23)CC1,–
153,Fc1ccc(-c2ccc3c(c2)C2CC3CCCN2C2CCCC2)cc1 (stereo not shown),–
213,FC(F)(F)c1ccc(-c2ccc3c(c2)C2CC3CCN2C2CCC2)cc1 (stereo not shown),–
264,O=C(C1CCN(CCCO)CC1)N1CC[C@@H]2CC1c1cc(-c3cccc(OC(F)(F)F)c3)ccc12,–
70.5,N[C@H]1CC[C@H](N2CCC3CC2c2cc(-c4cccc(C(F)(F)F)c4)ccc23)CC1 (stereo partly shown),–
194,COc1ccc(-c2ccc3c(c2)C2CC3CCCN2C2CCCC2)cc1 (stereo not shown),–
21,FC(F)(F)c1ccc(-c2ccc3c(c2)C2CC3CCCN2)cc1 (stereo not shown),–
39,OC1CCC(N2CCCC3CC2c2cc(-c4ccc(C(F)(F)F)cc4)ccc23)CC1 (stereo not shown),–
30.4,CN1CCC(C(=O)N2CCC3CC2c2cc(-c4cccc(OC(F)(F)F)c4)ccc23)CC1 (stereo not shown),–
34,OC(CF)CN1CCC2CC1c1cc(-c3ccc(C(F)(F)F)cc3)ccc12 (stereo not shown),–
441,O=C(N1CC2(CN(CCO)C2)C1)N1CCC2C[C@H]1c1cc(-c3ccc(C(F)(F)F)cc3)ccc12,–

Ki [1] [nM],SMILES,other results
834,CS(=O)(=O)c1ccc(-c2ccc3c(c2)[C@@H]2CC3CCN2C(=O)C2CCN(CCO)CC2)cc1,–
277,CS(=O)(=O)c1cccc(-c2ccc3c(c2)C2C[C@H]3CCN2C(=O)C2CCN(CCO)CC2)c1,–
57,FC(F)(F)c1cccc(-c2ccc3c(c2)C2CC3CCN2)c1 (stereo not shown),–
16,O=C(C1CNC1)N1CCC2CC1c1cc(-c3cccc(C(F)(F)F)c3)ccc12 (stereo not shown),–
4.3,CN(CCO)CCC(=O)N1CCC2CC1c1cc(-c3cccc(C(F)(F)F)c3)ccc12 (stereo not shown),–
4.9,CNCCC(=O)N1CCC2CC1c1cc(-c3cccc(C(F)(F)F)c3)ccc12 (stereo not shown),–
62,FC(F)(F)c1cccc(-c2ccc3c(c2)C2CC3CCCN2C2CCCC2)c1 (stereo not shown),–
8.7,CN(C)CCC(=O)N1CCC2CC1c1cc(-c3cccc(C(F)(F)F)c3)ccc12 (stereo not shown),–
5.5,O=C(C1CCNCC1)N1CCC2CC1c1cc(-c3cccc(C(F)(F)F)c3)ccc12 (stereo not shown),–
–,OCCCN1CCCC2CC1c1cc(-c3ccc(C(F)(F)F)cc3)ccc12 (stereo not shown) [UKH-1114],pain relief in the SNI model [4]: relieved pain; neuroprotection against mHTT-induced neuronal toxicity [3]: significant neuroprotection in a dose dependent fashion; intrinsic toxicity [3]: None of these compounds appear to exhibit any intrinsic toxicity
336,FC(F)(F)c1ccc(-c2ccc3c(c2)C2CC3CCCN2C2CCCC2)cn1 (stereo not shown),–
4.1,CC(=O)N[C@H]1CC[C@H](N2CCC3CC2c2cc(-c4cccc(C(F)(F)F)c4)ccc23)CC1 (stereo partly shown),–
82.3,FC(F)(F)c1ccc(-c2ccc3c(c2)C2CC3CCN2C2CCCC2)cc1 (stereo not shown),–
15.3,O=C(C1CN(CCO)C1)N1CCC2C[C@H]1c1cc(-c3ccc(C(F)(F)F)cc3)ccc12,–
11,OCCCN1CCC2CC1c1cc(-c3ccc(C(F)(F)F)cc3)ccc12 (stereo not shown),–
–,"CCCN1CCC(C(=O)N2CCC3CC2c2cc(-c4ccc(C(F)(F)F)cc4)ccc23)CC1 (racemic) [JJS-1678, (±)-(1-Propylpiperidin-4-yl)(8-(4-(trifluoromethyl)phenyl)-1,3,4,5-tetrahydro-2H-1,5-methanobenzo[c]azepin-2-yl)methanone]","affinity (Ki) for σ2R/TMEM97, in words [5]: high affinity; selectivity for σ2R/TMEM97 vs σ1R, in words [5]: good"
–,"FC(F)(F)c1ccc(-c2ccc3c(c2)C2CC3CCCN2C2CCCCC2)cc1 (racemic) [BEA-1687, (±)-2-Cyclohexyl-9-(4-(trifluoromethyl)phenyl)-1,2,3,4,5,6-hexahydro-1,6-methanobenzo[c]azocine]","affinity (Ki) for σ2R/TMEM97, in words [5]: high affinity; selectivity for σ2R/TMEM97 vs σ1R, in words [5]: good; neuroprotection against mHTT-induced neuronal toxicity [3]: significant neuroprotection in a dose dependent fashion; intrinsic toxicity [3]: None of these compounds appear to exhibit any intrinsic toxicity"
79,FC(F)(F)Oc1cccc(-c2ccc3c(c2)C2CC3CCN2C2CCCCC2)c1 (stereo not shown),–
7.7,O=C(C1CCN(CCCO)CC1)N1CCC2C[C@H]1c1cc(-c3ccc(C(F)(F)F)cc3)ccc12,–
52.5,O=C(C1CCNCC1)N1CCCC2CC1c1cc(-c3ccc(C(F)(F)F)cc3)ccc12 (stereo not shown),–

Ki [1] [nM],SMILES,other results
91.6,O=C(N1CCC2(CC1)CN(CCO)C2)N1CCC2C[C@H]1c1cc(-c3ccc(C(F)(F)F)cc3)ccc12,–
37.1,O=C(C1CCNCC1)N1CC[C@H]2CC1c1cc(-c3cccc(OC(F)(F)F)c3)ccc12,–
35.1,CN1CCC(C(=O)N2CCC3C[C@@H]2c2cc(-c4ccc(C(F)(F)F)cc4)ccc23)CC1,–
549,FC(F)(F)c1ccccc1-c1ccc2c(c1)C1CC2CCCN1C1CCCC1 (stereo not shown),–
13.6,O=C(C1CCN(CCO)CC1)N1CCC2C[C@H]1c1cc(-c3ccc(C(F)(F)F)cc3)ccc12,–
48.3,OCCCN1CC[C@@H]2CC1c1cc(-c3cccc(OC(F)(F)F)c3)ccc12,–
25,FC(F)(F)c1ccc(-c2ccc3c(c2)C2CC3CCCN2C2CCCCC2)cc1 (stereo not shown),–
–,"O=C(C1CCN(CCO)CC1)N1CCC2CC1c1cc(-c3ccc(C(F)(F)F)cc3)ccc12 (racemic) [EES-1686, (±)-(1-(2-Hydroxyethyl)piperidin-4-yl)(8-(4-(trifluoromethyl)phenyl)-1,3,4,5-tetrahydro-2H-1,5-methanobenzo[c]azepin-2-yl)methanone]","affinity (Ki) for σ2R/TMEM97, in words [5]: high affinity; selectivity for σ2R/TMEM97 vs σ1R, in words [5]: good; neuroprotection against mHTT-induced neuronal toxicity [3]: significant neuroprotection in a dose dependent fashion; concentration providing significant neuroprotection ([3]; lowest of the series): 10 nM; intrinsic toxicity [3]: None of these compounds appear to exhibit any intrinsic toxicity"
1850,CS(=O)(=O)c1cccc(-c2ccc3c(c2)C2C[C@H]3CCN2CCCO)c1,–
112,CCCN1CCC2CC1c1cc(-c3cccc(C(F)(F)F)c3)ccc12 (stereo not shown),–
10.3,COCCN1CCC(C(=O)N2CCC3C[C@H]2c2cc(-c4ccc(C(F)(F)F)cc4)ccc23)CC1,–
17.6,COCCN1CC(C(=O)N2CCC3C[C@H]2c2cc(-c4ccc(C(F)(F)F)cc4)ccc23)C1,–
87,CC(C)N1CCCC2CC1c1cc(-c3ccc(C(F)(F)F)cc3)ccc12 (stereo not shown),–
6.8,O=C(C1CCNCC1)N1CCC2CC1c1cc(-c3ccc(C(F)(F)F)cc3)ccc12 (stereo not shown),–
187,Cc1ccc(-c2ccc3c(c2)C2CC3CCCN2C2CCCC2)cc1 (stereo not shown),–
1180,CS(=O)(=O)c1ccc(-c2ccc3c(c2)C2C[C@H]3CCN2CCCO)cc1,–
119,N#Cc1ccc(-c2ccc3c(c2)C2CC3CCCN2C2CCCC2)cc1 (stereo not shown),–
99,FC(F)(F)c1ccc(-c2ccc3c(c2)C2CC3CCCN2CC2CCCC2)cc1 (stereo not shown),–

SMILES,Ki [1] [nM],other results
OCCCN1CC[C@@H]2CC1c1cc(-c3ccnc(F)c3)ccc12,802,–
O=C(N1CC2CC(C1)N2CCO)N1CCC2C[C@H]1c1cc(-c3ccc(C(F)(F)F)cc3)ccc12,62.9,–
